The source of these data is patent US7683168B2, “Compositions of novel opioid compounds and method of use thereof” (priority 2005, dated 2010).

SMILES strings stand for the structures.

One data set concerns mouse vas deferens. Briefly: electrically stimulated mouse vas deferens (MVD) ED50. The following applies: ED50, inhibition of electrically induced contractions. It counts as cell-based.
For a further data set, the target named is T1, human delta receptor (Homo sapiens, UniProt P41143).
T1 construct: purchased Perkin Elmer, Boston, Mass; 6110549; host or cells: HEK-293 cells
T1 sequence (P41143 whole entry): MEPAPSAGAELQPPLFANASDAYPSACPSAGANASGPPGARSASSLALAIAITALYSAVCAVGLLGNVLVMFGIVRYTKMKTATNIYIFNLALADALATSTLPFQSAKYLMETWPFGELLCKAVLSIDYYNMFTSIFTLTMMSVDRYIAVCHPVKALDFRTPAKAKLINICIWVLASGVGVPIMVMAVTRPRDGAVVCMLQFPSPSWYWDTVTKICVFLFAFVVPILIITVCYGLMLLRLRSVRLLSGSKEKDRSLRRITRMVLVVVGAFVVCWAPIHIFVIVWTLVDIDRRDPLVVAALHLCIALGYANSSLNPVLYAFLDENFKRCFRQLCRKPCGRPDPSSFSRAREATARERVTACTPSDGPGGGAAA
The experiment in a line: radioligand binding, human delta receptor, HEK-293 cell membranes. The following applies: cell not marked (rat), species not given, read-out: δ.

Data set [1] has as its system seizure-like convulsions in mice. Briefly: mouse seizure-like convulsions. It counts as in vivo. Here is the method: Mouse Seizure-Like Convulsions and antinociception: The central (CNS) effects of the compound were tested with central delta receptor mediated seizure-like convulsions and central mu opioid receptor mediated antinociceptive effects in mice. Male CD-1 mice (Charles River, Raleigh, N.C.) weighing 20-25 g were used to determine the seizure-like convulsion and antinociception activities for compounds.
They were then observed for seizure-like convulsions for one hour following the treatment. A seizure-like event was recorded if a mouse had uncontrollable clonic (or tonic/clonic) muscle movements that encompassed its entire body, usually followed by a brief cataleptic period. Catalepsy was determined by placing the animal's front paws on a horizontal bar held 2-3 inches from the cage floor. Cataleptic animals made no attempt to remove their paws.

A further data set addresses T2, human mu opioid receptor (Homo sapiens, UniProt P35372).
T2 construct: purchased Perkin Elmer, Boston, Mass; 6110535; host or cells: CHO cells
The experiment in a line: radioligand binding, human mu opioid receptor, CHO cell membranes. The following applies: species not given, read-out: μ.

T2 sequence (P35372 whole entry): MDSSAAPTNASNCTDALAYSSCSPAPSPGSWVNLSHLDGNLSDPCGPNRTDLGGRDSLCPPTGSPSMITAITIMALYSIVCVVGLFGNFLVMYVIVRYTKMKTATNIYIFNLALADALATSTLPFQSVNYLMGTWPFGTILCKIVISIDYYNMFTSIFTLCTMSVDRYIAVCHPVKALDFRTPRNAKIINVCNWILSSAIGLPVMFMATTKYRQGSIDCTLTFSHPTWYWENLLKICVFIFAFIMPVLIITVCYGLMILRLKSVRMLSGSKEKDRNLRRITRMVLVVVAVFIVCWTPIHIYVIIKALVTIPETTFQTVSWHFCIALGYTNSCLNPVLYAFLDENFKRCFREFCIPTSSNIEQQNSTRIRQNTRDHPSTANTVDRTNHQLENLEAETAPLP

For orientation: EC50 means the concentration needed to bring the measured effect to its halfway point. With `C=CCN1C[C@H](C)N([C@@H](c2cccc(O)c2)c2cccc(C(=O)N(C)CC(=O)O)c2)C[C@H]1C` [Example 152, ({3-[(R)-((2S,5R)-4-Allyl-2,5-dimethyl-piperazin-1-yl)-(3-hydroxy-phenyl)-methyl]-benzoyl}-methyl-amino)-acetic acid], the midpoint of the response with mouse vas deferens, the EC50, lay at 2.36 nM. In addition, the Ki at human delta receptor is 0.7 nM. In data set [1] (10 mg/kg IV), this compound yielded a Seiz. of 0% 10 mg/kg IV.
Turning to `C[C@@H]1CN([C@@H](c2cccc(O)c2)c2cccc(C(=O)N3CCN(CCCCCC(=O)O)CC3)c2)[C@@H](C)CN1Cc1cccc(F)c1` [Example 99, 6-(4-{3-[(R)-((2S,5R)-4-(3-Fluorobenzyl)-2,5-dimethyl-piperazin-1-yl)-(3-hydroxy-phenyl)-methyl]-benzoyl}-piperazin-1-yl)-hexanoic acid], the EC50 in the data set on mouse vas deferens turned out to be 10.6 nM. Also, on human delta receptor, the Ki was 15.7 nM. The compound further came in with a Seiz. in data set [1] (10 mg/kg IV) of 0% 10 mg/kg IV.
In turn, `C=CCN1C[C@H](C)N(C(c2cccc(O)c2)c2cccc(C(=O)N3CCCN(Cc4ccccc4C(=O)O)CC3)c2)C[C@H]1C` (some centres unmarked) came in with an EC50 in the data set with mouse vas deferens of 2.2 nM. At human mu opioid receptor, the Ki turned out to be 1.4 nM. In data set [1] (10 mg/kg IV), this compound returned a Seiz. of 40% 10 mg/kg IV.
The matching figures for `C=CCN1C[C@H](C)N(C(c2cccc(O)c2)c2cccc(C(=O)N3CCCN(Cc4cccc(C(=O)O)c4)CC3)c2)C[C@H]1C` (some centres unmarked): 6.23 nM, 5.5 nM and 0% 10 mg/kg IV.
`C=CCN1C[C@H](C)N([C@@H](c2cccc(O)c2)c2cccc(C(=O)N3CCN(CCCCCCC(=O)O)CC3)c2)C[C@H]1C` [Example 109, 7-(4-{3-[(R)-((2S,5R)-4-Allyl-2,5-dimethyl-piperazin-1-yl)-(3-hydroxy-phenyl)-methyl]-benzoyl}-piperazin-1-yl)-heptanoic acid] gave an EC50 in the data set on mouse vas deferens of 7.48 nM. Further, on human delta receptor, the Ki turned out to be 1.9 nM. In data set [1] (10 mg/kg IV), this compound displayed a Seiz. of 0% 10 mg/kg IV.
As for `C[C@@H]1CN([C@@H](c2cccc(O)c2)c2cccc(C(=O)N3CCN(Cc4ccc(C(=O)O)cc4)CC3)c2)[C@@H](C)CN1CC1CC1` [Example 103, 4-(4-{3-[(R)-((2S,5R)-4-Cyclopropylmethyl-2,5-dimethyl-piperazin-1-yl)-(3-hydroxy-phenyl)-methyl]-benzoyl}-piperazin-1-ylmethyl)-benzoic acid], the EC50 in the data set with mouse vas deferens turned out to be 187 nM. For the same compound, the Ki at human mu opioid receptor is 84.7 nM. Also, the Seiz. in data set [1] (60 mg/kg PO) came out at 0% 60 mg/kg PO.
Compound `CCOC(=O)CCCCCCN1CCN(C(=O)c2cccc([C@H](c3cccc(O)c3)N3C[C@@H](C)N(Cc4ccccc4)C[C@@H]3C)c2)CC1` [Example 110, 7-(4-{3-[(R)-((2S,5R)-4-Benzyl-2,5-dimethyl-piperazin-1-yl)-(3-hydroxy-phenyl)-methyl]-benzoyl}-piperazin-1-yl)-heptanoic acid ethyl ester] showed an EC50 in the data set with mouse vas deferens of 18.8 nM. Besides, the Seiz. in data set [1] (10 mg/kg IV) is on record as 70% 10 mg/kg IV.
Regarding `C[C@@H]1CN([C@@H](c2cccc(O)c2)c2cccc(C(=O)N3CCN(CC(=O)O)CC3)c2)[C@@H](C)CN1Cc1cccc(F)c1` [Example 67, (4-{3-[(R)-[(2S,5R)-4-(3-Fluoro-benzyl)-2,5-dimethyl-piperazin-1-yl]-(3-hydroxy-phenyl)-methyl]-benzoyl}-piperazin-1-yl)-acetic acid], the EC50 in the data set on mouse vas deferens worked out at 2.82 nM. The Ki at human mu opioid receptor came to 10.7 nM. This compound registered a Seiz. in data set [1] (10 mg/kg IV) of 0% 10 mg/kg IV.
On to `CCOC(=O)CCCCN1CCN(C(=O)c2cccc([C@H](c3cccc(O)c3)N3C[C@@H](C)N(CC4CC4)C[C@@H]3C)c2)CC1` [Example 89, 5-(4-{3-[(R)-((2S,5R)-4-Cyclopropylmethyl-2,5-dimethyl-piperazin-1-yl)-(3-hydroxy-phenyl)-methyl]-benzoyl}-piperazin-1-yl)-pentanoic acid ethyl ester], for which the EC50 with mouse vas deferens turned out to be 92.7 nM. Further, the Ki was determined as 23.2 nM at human mu opioid receptor and 15.4 nM on human delta receptor.
The matching figures for `CCOC(=O)CCCCCCN1CCCN(C(=O)c2cccc(C(c3cccc(O)c3)N3C[C@@H](C)N(Cc4cccc(F)c4)C[C@@H]3C)c2)CC1` (some centres unmarked): 245 nM, 7 nM and 13.3 nM.
The matching figures for `C[C@@H]1CN(C(c2cccc(O)c2)c2cccc(C(=O)N3CCCN(CCCCCCC(=O)O)CC3)c2)[C@@H](C)CN1CC1CC1` (some centres unmarked): 339 nM, 40.7 nM and 50.6 nM.
For the compound `C=CCN1C[C@H](C)N([C@@H](c2cccc(O)c2)c2cccc(C(=O)N(C)CC(=O)OCC)c2)C[C@H]1C` [Example 151, ({3-[(R)-((2S,5R)-4-Allyl-2,5-dimethyl-piperazin-1-yl)-(3-hydroxy-phenyl)-methyl]-benzoyl}-methyl-amino)-acetic acid ethyl ester], in the data set with mouse vas deferens, it took 1.6 nM to reach a half-maximal effect (EC50). Besides, the Ki on human mu opioid receptor came out at 0.5 nM. The Seiz. in data set [1] (10 mg/kg IV) worked out at 100% 10 mg/kg IV.
In the data set on mouse vas deferens, `C=CCN1C[C@H](C)N([C@@H](c2cccc(O)c2)c2cccc(C(=O)N3CCC[C@H]3C(=O)O)c2)C[C@H]1C` [Example 144, 1-{3-[(R)-((2S,5R)-4-Allyl-2,5-dimethyl-piperazin-1-yl)-(3-hydroxy-phenyl)-methyl]-benzoyl}-pyrrolidine-2-carboxylic acid] showed an EC50 of 1.15 nM. Also, the Ki at human delta receptor came to 0.62 nM. The Seiz. in data set [1] (10 mg/kg IV) came out at 0% 10 mg/kg IV.
On to `CCOC(=O)CCCCCN1CCN(C(=O)c2cccc([C@H](c3cccc(O)c3)N3C[C@@H](C)N(Cc4cccc(F)c4)C[C@@H]3C)c2)CC1` [Example 98, 6-(4-{3-[(R)-((2S,5R)-4-(3-Fluorobenzyl)-2,5-dimethyl-piperazin-1-yl)-(3-hydroxy-phenyl)-methyl]-benzoyl}-piperazin-1-yl)-hexanoic acid ethyl ester], for which the EC50 in the data set with mouse vas deferens is 102 nM. Moreover, the Ki on human mu opioid receptor amounted to 8.5 nM; on human delta receptor it was 7.1 nM.
For `C[C@@H]1CN([C@@H](c2cccc(O)c2)c2cccc(C(=O)N3CCN(CC(=O)O)CC3)c2)[C@@H](C)CN1CC1CC1` [Example 71] the same measures were 35.9 nM, 81.8 nM and 6.1 nM.
For `C[C@@H]1CN([C@@H](c2cccc(O)c2)c2cccc(C(=O)N3CCN(CCCCC(=O)O)CC3)c2)[C@@H](C)CN1CC1CC1` [Example 90, 5-(4-{3-[(R)-((2S,5R)-4-Cyclopropylmethyl-2,5-dimethyl-piperazin-1-yl)-(3-hydroxy-phenyl)-methyl]-benzoyl}-piperazin-1-yl)-pentanoic acid] the same measures were 46.2 nM, 409 nM and 32.5 nM.
For `COCCN1C[C@H](C)N([C@@H](c2cccc(O)c2)c2cccc(C(=O)N3CCN(Cc4ccc(C(=O)O)cc4)CC3)c2)C[C@H]1C` [Example 105, 4-[4-(3-{(R)-(3-Hydroxy-phenyl)-[(2S,5R)-4-(2-methoxy-ethyl)-2,5-dimethyl-piperazin-1-yl]-methyl}-benzoyl)-piperazin-1-ylmethyl]-benzoic acid] the same measures were 30.6 nM, 88.6 nM and 32 nM.
As for `CCOC(=O)CCCCN1CCCN(C(=O)c2cccc(C(c3cccc(O)c3)N3C[C@@H](C)N(CC4CC4)C[C@@H]3C)c2)CC1` (some centres unmarked), the EC50 in the data set on mouse vas deferens came out at 116 nM. For the same compound, the Ki came to 29.9 nM at human mu opioid receptor and 88.5 nM at human delta receptor.
For `C=CCN1C[C@H](C)N(C(c2cccc(O)c2)c2cccc(C(=O)N3CCCN(CCCCCC(=O)OCC)CC3)c2)C[C@H]1C` (some centres unmarked) the same measures were 43.3 nM, 21.3 nM and 3.2 nM.
In the data set on mouse vas deferens, `CCOC(=O)CCCCCN1CCCN(C(=O)c2cccc(C(c3cccc(O)c3)N3C[C@@H](C)N(Cc4cccc(F)c4)C[C@@H]3C)c2)CC1` (some centres unmarked) showed a concentration for a half-maximal effect (EC50) of 156 nM. In addition, the values for the Ki on human mu opioid receptor and on human delta receptor were 58.5 nM and 12.9 nM, respectively.
`CCOC(=O)CCCN1CCCN(C(=O)c2cccc(C(c3cccc(O)c3)N3C[C@@H](C)N(CC4CC4)C[C@@H]3C)c2)CC1` (some centres unmarked) displayed an EC50 in the data set with mouse vas deferens of 92.5 nM. Moreover, the Ki was determined as 3.9 nM at human mu opioid receptor and 10.3 nM at human delta receptor.
In the case of `C[C@@H]1CN(C(c2cccc(O)c2)c2cccc(C(=O)N3CCCN(CCCCCC(=O)O)CC3)c2)[C@@H](C)CN1Cc1cccc(F)c1` (some centres unmarked), the midpoint of the response in the data set on mouse vas deferens, the EC50, lay at 16.2 nM. The Ki on human mu opioid receptor turned out to be 222 nM; at human delta receptor it was 25.1 nM.
For `CCOC(=O)CCCCCN1CCCN(C(=O)c2cccc(C(c3cccc(O)c3)N3C[C@@H](C)N(Cc4ccccc4)C[C@@H]3C)c2)CC1` (some centres unmarked) the same measures were 29.6 nM, 23.4 nM and 3.7 nM.
Compound `CCOC(=O)N1CCN(C(=O)c2cccc([C@H](c3cccc(O)c3)N3C[C@@H](C)N(Cc4cccc(F)c4)C[C@@H]3C)c2)CC1` [Example 60, 4-{3-[(R)-[(2S,5R)-4-(3-Fluorobenzyl)-2,5-dimethylpiperazin-1-yl]-(3-hydroxyphenyl)methyl]benzoyl}piperazine-1-carboxylic acid ethyl ester] returned an EC50 in the data set on mouse vas deferens of 47.2 nM. In addition, the Ki at human mu opioid receptor was found to be 9.8 nM; at human delta receptor, 13.1 nM.
